These results are taken from US12275712B2, “Triterpene derivatives as HIV inhibitors” (HETERO LABS LIMITED, priority 2019, dated 2025).

One assay concerns pNL4-3 WT. Description: Antiviral activity against pNL4-3 WT strain in MT4 cells (p24 estimation). Conditions: Human immunodeficiency virus 1, MT4, 96 h, read-out: pNL4-3 WT IC50. Type of assay: cell-based, HIV-1. The method, then:
(§1) MT4 cells were Transfected with HIV-1 Plasmid (pNL4-3-WT & V7A) (Cells were incubating with required number of TCID50 of HIV-1 for 1.5 h at 37° C.). After infection, the infected cells were plated at the concentration of 3×10^4 cells per well in 96 well plate. Test compound was added to the test plate in defined format with the final concentration of DMSO is not more than 1%. Incubation was carried out in CO2 incubator for 4 days for viral infection. At the end of incubation period an aliquot from each well was taken for p24 estimation. p24 estimation was carried out using Advance biosciences kit as per the procedure detailed by supplier.

The next assay relates to HIV-1 strain 92HT599. Description: Antiviral activity against HIV-1 strain 92HT599 in MT2 cells (p24 estimation). It counts as cell-based. How it is done: MT2 cells were infected with HIV-1 strain 92HT599 (10 TCID 50/30000 cells). The infected cells were plated at the concentration of ˜30,000 cells per well in 96 well plate. Test compound was added to the micro plate in defined format with the final concentration of DMSO (vehicle) is not more than 1%. Incubation was carried out in CO2 incubator for ˜96 hours for viral infection. At the end of incubation period an aliquot from each well was taken for p24 estimation. The quantitation of p24 is an index for antiviral activity of the compound. Percent inhibition was calculated with reference to control values (vehicle controls). p24 estimation was carried out using Advance biosciences kit as per the procedure detailed by supplier.
The IC50 (nM) values are set forth in below Table-1.

The subject of the next assay is pNL4-3 V7A. Description: Antiviral activity against pNL4-3 V7A strain in MT4 cells (p24 estimation). The following applies: Human immunodeficiency virus 1, MT4, 96 h, read-out: pNL4-3 V7A IC50. Type of assay: cell-based, HIV-1. The method, then:
as §1

Where [1] appears, read: Human immunodeficiency virus 1, HIV-1 strain 92HT599, MT2 cells, ~96 hours, p24, read-out: IC50.

As usually defined, the IC50 is the midpoint of a concentration-inhibition curve.

Read-outs that look alike come from different tables or passages of the source. Bounds are passed on as bounds.

In the case of `COCCOCCOCCO[C@H](C)[C@@H](CN[C@]12CC[C@@H](C3(C)CC3)[C@@H]1[C@H]1CC[C@@H]3[C@@]4(C)CC[C@H](OC(=O)[C@H]5C[C@@H](C(=O)O)C5(C)C)C(C)(C)[C@@H]4CC[C@@]3(C)[C@]1(C)CC2)N1CCS(=O)(=O)CC1` [Example 18, (1R,3S)-3-((((1R,3aS,5aR,5bR,7aR,9S,11aR,11bR,13aR,13bR)-3a-(((12R,13R)-13-(1,1-dioxidothiomorpholino)-12-methyl-2,5,8,11-tetraoxatetradecan-14-yl)amino)-5a,5b,8,8,11a-pentamethyl-1-(1-methylcyclopropyl)icosahydro-1H-cyclopenta[a]chrysen-9-yl)oxy)carbonyl)-2,2-dimethylcyclobutane-1-carboxylic acid], the IC50 was < 10 nM with pNL4-3 WT, < 10 nM with HIV-1 strain 92HT599 (setting [1]) and 1 to 50 nM with pNL4-3 V7A.
Consider `CC1([C@@H]2CC[C@]3(NC[C@@H](CF)N4CCS(=O)(=O)CC4)CC[C@]4(C)[C@H](CC[C@@H]5[C@@]6(C)CC[C@H](OC(=O)[C@H]7C[C@@H](C(=O)O)C7(C)C)C(C)(C)[C@@H]6CC[C@]54C)[C@@H]23)CC1` [Example 9, (1R,3S)-3-((((1R,3aS,5aR,5bR,7aR,9S,11aR,11bR,13aR,13bR)-3a-(((S)-2-(1,1-dioxidothiomorpholino)-3-fluoropropyl)amino)-5a,5b,8,8,11a-pentamethyl-1-(1-methylcyclopropyl)icosahydro-1H-cyclopentachrysen-9-yl)oxy)carbonyl)-2,2-dimethyl cyclobutane-1-carboxylic acid], for which the IC50 with pNL4-3 WT is 10 to 50 nM; in the assay on HIV-1 strain 92HT599 (setting [1]), < 10 nM; with pNL4-3 V7A, 50 to 100 nM.
For `C=C(C)[C@@H]1CC[C@]2(NC[C@H]([C@@H](C)OC(=O)COCCOC)N3CCS(=O)(=O)CC3)CC[C@]3(C)[C@H](CC[C@@H]4[C@@]5(C)CC[C@H](OC(=O)[C@H]6C[C@@H](C(=O)O)C6(C)C)C(C)(C)[C@@H]5CC[C@]43C)[C@@H]12` [Example 19, (1R,3S)-3-((((1R,3aS,5aR,5bR,7aR,9S,11aR,11bR,13aR,13bR)-3a-(((2R,3R)-2-(1,1-dioxidothiomorpholino)-3-(2-(2-methoxyethoxy)acetoxy)butyl)amino)-5a,5b,8,8,11a-pentamethyl-1-(prop-1-en-2-yl)icosahydro-1H-cyclopentachrysen-9-yl)oxy)carbonyl)-2,2-dimethylcyclobutane-1-carboxylic acid], in that order: < 10 nM, < 10 nM and 1 to 50 nM.
On the same counts, the results for `C[C@@H](O)[C@@H](CN[C@]12CC[C@@H](C3(C)CC3)[C@@H]1[C@H]1CC[C@@H]3[C@@]4(C)CC[C@H](OC(=O)[C@H]5C[C@@H](C(=O)O)C5(C)C)C(C)(C)[C@@H]4CC[C@@]3(C)[C@]1(C)CC2)N1CCS(=O)(=O)CC1` [Example 7, (1R,3S)-3-((((1R,3aS,5aR,5bR,7aR,9S,11aR,11bR,13aR,13bR)-3a-(((2R,3R)-2-(1,1-dioxidothiomorpholino)-3-hydroxybutyl)amino)-5a,5b,8,8,11a-pentamethyl-1-(1-methylcyclopropyl)icosahydro-1H-cyclopentachrysen-9-yl)oxy)carbonyl)-2,2-dimethylcyclobutane-1-carboxylic acid] are < 10 nM, < 10 nM and 1 to 50 nM.
On the same counts, the results for `CC1([C@@H]2CC[C@]3(NC[C@H](C(=O)O)N4CCS(=O)(=O)CC4)CC[C@]4(C)[C@H](CC[C@@H]5[C@@]6(C)CC[C@H](OC(=O)[C@H]7C[C@@H](C(=O)O)C7(C)C)C(C)(C)[C@@H]6CC[C@]54C)[C@@H]23)CC1` [Example 16, (1R,3S)-3-((((1R,3aS,5aR,5bR,7aR,9S,11aR,11bR,13aR,13bR)-3a-(((R)-2-carboxy-2-(1,1-dioxidothiomorpholino)ethyl)amino)-5a,5b,8,8,11a-pentamethyl-1-(1-methylcyclopropyl)icosahydro-1H-cyclopenta[a]chrysen-9-yl)oxy)carbonyl)-2,2-dimethylcyclobutane-1-carboxylic acid] are > 50 nM, 10 to 20 nM and > 100 nM.
`C[C@H](O)[C@H](CN[C@]12CC[C@@H](C3(C)CC3)[C@@H]1[C@H]1CC[C@@H]3[C@@]4(C)CC[C@H](OC(=O)[C@H]5C[C@@H](C(=O)O)C5(C)C)C(C)(C)[C@@H]4CC[C@@]3(C)[C@]1(C)CC2)N1CCS(=O)(=O)CC1` [Example 13, (1R,3S)-3-((((1R,3aS,5aR,5bR,7aR,9S,11aR,11bR,13aR,13bR)-3a-(((2S,3S)-2-(1,1-dioxidothiomorpholino)-3-hydroxybutyl)amino)-5a,5b,8,8,11a-pentamethyl-1-(1-methylcyclopropyl)icosahydro-1H-cyclopenta[a]chrysen-9-yl)oxy)carbonyl)-2,2-dimethylcyclobutane-1-carboxylic acid]: the IC50 is < 10 nM in the assay on pNL4-3 WT, < 10 nM in the assay on HIV-1 strain 92HT599 (setting [1]) and 1 to 50 nM in the assay with pNL4-3 V7A.
Take `CC1([C@@H]2CC[C@]3(NC[C@H](CO[Si](C)(C)C(C)(C)C)N4CCS(=O)(=O)CC4)CC[C@]4(C)[C@H](CC[C@@H]5[C@@]6(C)CC[C@H](OC(=O)[C@H]7C[C@@H](C(=O)O)C7(C)C)C(C)(C)[C@@H]6CC[C@]54C)[C@@H]23)CC1` [Example 4, (1R,3S)-3-((((1R,3aS,5aR,5bR,7aR,9S,11aR,11bR,13aR,13bR)-3a-(((R)-3-((tert-butyldimethylsilyl)oxy)-2-(1,1-dioxidothiomorpholino)propyl)amino)-5a,5b, 8,8,11a-pentamethyl-1-(1-methylcyclopropyl)icosahydro-1H-cyclopenta[a]chrysen-9-yl)oxy)carbonyl)-2,2-dimethylcyclobutane-1-carboxylic acid]: the IC50 in the assay on pNL4-3 WT was > 50 nM; in the assay on HIV-1 strain 92HT599 (Human immunodeficiency virus 1, MT2, 96 h), 10 to 20 nM; with pNL4-3 V7A, > 100 nM.
For the compound `CC(C)S(=O)(=O)N1CCN([C@@H](C)CN[C@]23CC[C@@H](C4(C)CC4)[C@@H]2[C@H]2CC[C@@H]4[C@@]5(C)CC[C@H](OC(=O)[C@H]6C[C@@H](C(=O)O)C6(C)C)C(C)(C)[C@@H]5CC[C@@]4(C)[C@]2(C)CC3)CC1` [Example 11, (1R,3S)-3-((((1R,3aS,5aR,5bR,7aR,9S,11aR,11bR,13aR,13bR)-3a-(((S)-2-(4-(isopropylsulfonyl)piperazin-1-yl)propyl)amino)-5a,5b,8,8,11a-pentamethyl-1-(1-methylcyclopropyl)icosahydro-1H-cyclopenta[a]chrysen-9-yl)oxy)carbonyl)-2,2-dimethyl cyclobutane-1-carboxylic acid], the IC50 with pNL4-3 WT was < 10 nM; in the assay on HIV-1 strain 92HT599 (setting [1]) it was < 10 nM; with pNL4-3 V7A, 1 to 50 nM.
For the compound `CC(C)[C@@H](CN[C@]12CC[C@@H](C3(C)CC3)[C@@H]1[C@H]1CC[C@@H]3[C@@]4(C)CC[C@H](OC(=O)[C@H]5C[C@@H](C(=O)O)C5(C)C)C(C)(C)[C@@H]4CC[C@@]3(C)[C@]1(C)CC2)N1CCS(=O)(=O)CC1` [Example 6, (1R,3S)-3-((((1R,3aS,5aR,5bR,7aR,9S,11aR,11bR,13aR,13bR)-3a-(((S)-2-(1,1-dioxidothiomorpholino)-3-methylbutyl)amino)-5a,5b,8,8,11a-pentamethyl-1-(1-methylcyclopropyl)icosahydro-1H-cyclopentachrysen-9-yl)oxy)carbonyl)-2,2-dimethylcyclobutane-1-carboxylic acid], the IC50 with pNL4-3 WT is 10 to 50 nM; in the assay with HIV-1 strain 92HT599 (setting [1]), < 10 nM; in the assay with pNL4-3 V7A, 1 to 50 nM.
On the same counts, the results for `CC1([C@@H]2CC[C@]3(NC[C@H](CF)N4CCS(=O)(=O)CC4)CC[C@]4(C)[C@H](CC[C@@H]5[C@@]6(C)CC[C@H](OC(=O)[C@H]7C[C@@H](C(=O)O)C7(C)C)C(C)(C)[C@@H]6CC[C@]54C)[C@@H]23)CC1` [Example 10, (1R,3S)-3-((((1R,3aS,5aR,5bR,7aR,9S,11aR,11bR,13aR,13bR)-3a-(((R)-2-(1,1-dioxidothiomorpholino)-3-fluoropropyl)amino)-5a,5b,8,8,11a-pentamethyl-1-(1-methylcyclopropyl)icosahydro-1H-cyclopenta[a]chrysen-9-yl)oxy)carbonyl)-2,2-dimethyl cyclobutane-1-carboxylic acid] are < 10 nM, < 10 nM and 1 to 50 nM.
For `C=C(C)[C@@H]1CC[C@]2(NC[C@H]([C@@H](C)O)N3CCS(=O)(=O)CC3)CC[C@]3(C)[C@H](CC[C@@H]4[C@@]5(C)CC[C@H](OC(=O)[C@H]6C[C@@H](C(=O)O)C6(C)C)C(C)(C)[C@@H]5CC[C@]43C)[C@@H]12` [Example 15, (1R,3S)-3-((((1R,3aS,5aR,5bR,7aR,9S,11aR,11bR,13aR,13bR)-3a-(((2R,3R)-2-(1,1-dioxidothiomorpholino)-3-hydroxybutyl)amino)-5a,5b,8,8,11a-pentamethyl-1-(prop-1-en-2-yl)icosahydro-1H-cyclopenta[a]chrysen-9-yl)oxy)carbonyl)-2,2-dimethylcyclobutane-1-carboxylic acid], in that order: < 10 nM, < 10 nM and 1 to 50 nM.
